Measured values taken from ChEMBL document CHEMBL1201862, “PubChem BioAssay data set” (2004).
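Results reflect a 48-hour exposure of cells in 96-well plates to compound at five concentrations. GI50: concentration for 50% inhibition of growth.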 Activity calls are given as the source filed them. Rule as the data show it: active = GI50 up to about 1.1 µM and inactive = higher.

Legend:
Experiment in all cases: inhibition of tumour cell growth, NCI panel, 48 h
OVCAR-4 = tested on: OVCAR-4
RXF 393 = tested on: RXF 393
COLO 205 = tested on: COLO 205
ACHN = tested on: ACHN
Malme-3M = tested on: Malme-3M
SK-OV-3 = tested on: SK-OV-3
SF-268 = tested on: SF-268
MCF7 = tested on: MCF7
CCRF-CEM = tested on: CCRF-CEM
K562 = tested on: K562
SNB-75 = tested on: SNB-75
SNB-19 = tested on: SNB-19
NCI-H23 = tested on: NCI-H23
RPMI-8226 = tested on: RPMI-8226
MDA-N = tested on: MDA-N
OVCAR-8 = tested on: OVCAR-8
U-251 = tested on: U-251
Hs-578T = tested on: Hs-578T
PC-3 = tested on: PC-3
M14 = tested on: M14

Row | Structure (SMILES) | GI50 (OVCAR-4) | GI50 (RXF 393) | GI50 (COLO 205) | GI50 (ACHN) | GI50 (Malme-3M) | GI50 (SK-OV-3) | GI50 (SF-268) | GI50 (MCF7) | GI50 (CCRF-CEM) | GI50 (K562) | GI50 (SNB-75) | GI50 (SNB-19) | GI50 (NCI-H23) | GI50 (RPMI-8226) | GI50 (MDA-N) | GI50 (OVCAR-8) | GI50 (U-251) | GI50 (Hs-578T) | GI50 (PC-3) | GI50 (M14)
1 | Nc1ccc(-c2nc3ccccc3s2)cc1Br | > 100 µM (inactive) | > 38.9 µM (inactive) | > 100 µM (inactive) | > 80.9 µM (inactive) | > 100 µM (inactive) | > 71.4 µM (inactive) | 61 µM (inactive) | < 0.01 µM (active) | 32 µM (inactive) | 87.1 µM (inactive) | 31.3 µM (inactive) | 60.4 µM (inactive) | 63.7 µM (inactive) | 70.8 µM (inactive) | > 100 µM (inactive) | > 75.2 µM (inactive) | 57.5 µM (inactive) | 24 µM (inactive) | 69.7 µM (inactive) | 97.9 µM (inactive)
2 | NCCSS(=O)(=O)CCN | > 100 µM (inactive) | > 100 µM (inactive) | > 100 µM (inactive) | > 100 µM (inactive) | > 100 µM (inactive) | > 100 µM (inactive) | > 100 µM (inactive) | > 100 µM (inactive) | > 100 µM (inactive) | > 100 µM (inactive) | > 100 µM (inactive) | > 100 µM (inactive) | > 100 µM (inactive) | > 100 µM (inactive) | > 100 µM (inactive) | > 100 µM (inactive) | > 100 µM (inactive) | > 100 µM (inactive) | > 100 µM (inactive) | > 100 µM (inactive)
3 | COc1ccc2c(c1)c(=O)c1c(NCCCN(C)CCCNc3ccc4c(=O)n(CCN(C)C)c(=O)n5c6ccc(OC)cc6c(=O)c3c45)ccc3c(=O)n(CCN(C)C)c(=O)n2c31 | < 0.01 µM (active) | < 0.0202 µM (active) | < 0.0473 µM (active) | < 0.01 µM (active) | 0.484 µM (active) | 0.217 µM (active) | 0.0998 µM (active) | < 0.01 µM (active) | < 0.01 µM (active) | < 0.01 µM (active) | < 0.0175 µM (active) | < 0.01 µM (active) | < 0.0324 µM (active) | < 0.01 µM (active) | 0.17 µM (active) | < 0.01 µM (active) | < 0.01 µM (active) | 0.105 µM (active) | < 0.0147 µM (active) | 0.594 µM (active)
4 | CCn1c(=O)ccc2ccc(N(CCO)CCO)nc21 | > 100 µM (inactive) | > 100 µM (inactive) | > 100 µM (inactive) | > 100 µM (inactive) | > 100 µM (inactive) | > 100 µM (inactive) | > 100 µM (inactive) | > 100 µM (inactive) | > 100 µM (inactive) | > 100 µM (inactive) | > 100 µM (inactive) | > 100 µM (inactive) | > 100 µM (inactive) | > 100 µM (inactive) | > 100 µM (inactive) | > 100 µM (inactive) | > 100 µM (inactive) | > 100 µM (inactive) | > 100 µM (inactive) | > 100 µM (inactive)
5 | O=C(CC(O)(C(F)(F)F)C(F)(F)Cl)CC(O)(C(F)(F)F)C(F)(F)Cl (stereo not given) | 1.42 µM (inactive) | 2.23 µM (inactive) | 1.69 µM (inactive) | 1.77 µM (inactive) | 1.14 µM (inactive) | 1.4 µM (inactive) | 2.31 µM (inactive) | 2.79 µM (inactive) | 3.86 µM (inactive) | 2.76 µM (inactive) | 2.82 µM (inactive) | 2.22 µM (inactive) | 1.25 µM (inactive) | 7.1 µM (inactive) | 3.21 µM (inactive) | 2.88 µM (inactive) | 1.88 µM (inactive) | 2.07 µM (inactive) | 1.64 µM (inactive) | 3.65 µM (inactive)
6 | Cn1cnc([N+](=O)[O-])c1Sc1nc(N)nc2c1ncn2Cc1ccccc1 | 20.8 µM (inactive) | 19.5 µM (inactive) | 16.2 µM (inactive) | 15.3 µM (inactive) | 13.2 µM (inactive) | 24.5 µM (inactive) | 16.5 µM (inactive) | 35.4 µM (inactive) | 13.9 µM (inactive) | 20.5 µM (inactive) | 20.4 µM (inactive) | 42.7 µM (inactive) | 19.2 µM (inactive) | 19 µM (inactive) | 19.4 µM (inactive) | 18.1 µM (inactive) | 21.8 µM (inactive) | 20.5 µM (inactive) | 11.6 µM (inactive) | 22.9 µM (inactive)
7 | Cc1cc2nc(C=C(C(F)(F)F)C(F)(F)F)oc2cc1C | 3.18 µM (inactive) | 2.49 µM (inactive) | 0.199 µM (active) | 5.06 µM (inactive) | 1.97 µM (inactive) | > 10 µM (inactive) | 3.42 µM (inactive) | 0.472 µM (active) | 1.06 µM (active) | 2.25 µM (inactive) | 4.55 µM (inactive) | 3.45 µM (inactive) | 2.49 µM (inactive) | 1.55 µM (inactive) | > 10 µM (inactive) | 2.46 µM (inactive) | 3.33 µM (inactive) | 3.37 µM (inactive) | 2.47 µM (inactive) | 2.51 µM (inactive)
8 | CC(C)(C)c1ccc(-c2nc3ccccc3c(=O)o2)cc1 | 35.7 µM (inactive) | 95.9 µM (inactive) | 30.6 µM (inactive) | 33.7 µM (inactive) | 35.8 µM (inactive) | 83.4 µM (inactive) | 53.6 µM (inactive) | 27.7 µM (inactive) | 19.3 µM (inactive) | 35.6 µM (inactive) | 24 µM (inactive) | 43.1 µM (inactive) | 34.3 µM (inactive) | 25.5 µM (inactive) | 41.2 µM (inactive) | 47.4 µM (inactive) | 40.6 µM (inactive) | 68.7 µM (inactive) | 38.4 µM (inactive) | 42.3 µM (inactive)
9 | COC(=O)C(CCSC)NC(=O)Cc1ccc(C(=O)c2ccccc2)cc1 (stereo not given) | > 100 µM (inactive) | > 100 µM (inactive) | > 100 µM (inactive) | > 100 µM (inactive) | > 100 µM (inactive) | 40.4 µM (inactive) | > 100 µM (inactive) | 47.3 µM (inactive) | 42.5 µM (inactive) | 37.8 µM (inactive) | 40.6 µM (inactive) | 82.6 µM (inactive) | 44.8 µM (inactive) | 46.5 µM (inactive) | 14.9 µM (inactive) | 73.3 µM (inactive) | 34.6 µM (inactive) | 33.1 µM (inactive) | 56.8 µM (inactive) | 35.5 µM (inactive)
10 | COC1(C)Cc2c(c(C)c(O)c3c2C(=O)C=C(Cl)C3=O)O1 (stereo not given) | 41.3 µM (inactive) | 16 µM (inactive) | 18.2 µM (inactive) | 25.4 µM (inactive) | 13.5 µM (inactive) | > 100 µM (inactive) | > 88.1 µM (inactive) | 41.8 µM (inactive) | 3.39 µM (inactive) | 8.75 µM (inactive) | > 100 µM (inactive) | > 100 µM (inactive) | 66.8 µM (inactive) | 14.7 µM (inactive) | 34.9 µM (inactive) | 40.2 µM (inactive) | > 75.5 µM (inactive) | 23.5 µM (inactive) | > 100 µM (inactive) | 21.8 µM (inactive)
